Data published in US20210205272A1, “DOSING REGIMENS FOR TREATMENT OF SOLID TUMORS HAVING ONE OR MORE GENETIC ALTERATIONS IN FGFR1, FGFR2, AND/OR FGFR3” (DEBIOPHARM INTERNATIONAL, S.A., priority 2018, published 2021).

Experiments:
[1] = system: advanced solid tumors harboring FGFR 1, 2 or 3 gene alterations; experiment: Phase I dose escalation Debio 1347-101: tumor response by RECIST 1.1; format: in vivo, human
[2] = system: advanced solid malignancies of any histological tumor type harboring an FGFR 1, 2 or 3 fusion; experiment: Expansion part of Debio 1347-101 phase I study: tumor response by RECIST 1.1; format: in vivo, human; conditions: 80 mg once daily
Experimental: The primary objective of this expansion phase is to confirm the safety profile at the RP2D of 80 mg once daily.
As of January 2019, two patients achieved a BOR of PR by investigator assessment according to RECIST 1.1 criteria, one suffering from a cholangiocarcinoma harboring a FGFR2-TACC2 fusion and one suffering from a colon cancer harboring a FGFR2-RP11-89K10.1 fusion.

clinical = conditions: in vivo
[3] = 10 patients with confirmed FGFR fusions, doses ≥60 mg/day
[4] = confirmed FGFR fusions, doses ≥60 mg/day
[5] = one patient, intrahepatic cholangiocarcinoma, FGFR2 deletion of exon 5

For Cc1nc2cc(-n3ncc(C(=O)c4cc5ccccc5[nH]4)c3N)ccc2[nH]1 [Debio 1347, 5-amino-1-(2-methyl-1H-benzo[d]imidazol-5-yl)-1H-pyrazol-4-yl 1H-indol-2-yl ketone], the “patients achieving PR” value [1, 3] was 3 patients, the “patients achieving disease stabilization” value [1, 3] was 5 patients and the “patients with progressive disease” value ([1]; 57 evaluable patients) was 35 patients. For the same compound, the “patients with stable disease” value ([1]; 57 evaluable patients) was 16 patients, the “tumor type, FGFR alteration and dose of the six PRs” value ([1]; 57 evaluable patients) was “two had urothelial carcinoma (FGFR3 fusion—80, 150 mg), the others uterine (FGFR1 amplified—30 mg), cervical (FGFR2 amplified—80 mg), colon cancer (FGFR1 amplified—110 mg) or cholangiocarcinoma (FGFR2 mutation—110 mg)” and the “patients with partial response (PR), overall” value ([1]; 57 patients evaluable for tumor response) was 6 patients. The “disease control rate (DCR) overall” value ([1]; all evaluable patients) was 38.6%, the “response after independent centralized radiological review” value ([1]; cholangiocarcinoma, FGFR2 mutation, 110 mg) was “confirmed completed response (CR)” and the “disease control rate (DCR)” value [1, 4] was 80%. The “median treatment duration in patients with disease control” value [1, 4] was 34 weeks, the “range of treatment duration in patients with disease control” value [1, 4] was 24-47 weeks and the antitumor activity ([1]; mainly FGFR2 or 3 gene alterations incl. fusion/translocation, 80 mg and 110 mg daily) was “Encouraging antitumor activity”. For the same compound, the “stable disease patients with reduced target lesion size ≤30% at least once on-treatment” value ([1]; of 16 with stable disease) was 10 patients, the “patients with progressive disease per clinical assessment in absence of radiographic evidence” value ([1]; of 35 with progressive disease) was 13 patients and the “duration of partial response” value [1, 5] was “up to 48 weeks”. The “response upon independent radiological review” value [1, 5] was “complete response”, the drug-related deaths (58 treated patients) was “no death was considered drug-related” and the “maximum tolerated dose (MTD)” value (escalated up to 150 mg, ≤2 DLTs at the same dose level) was “not formally reached”. For the same compound, the “TEAE highest severity grade 1” value (human, in vivo) was 4 (6.9%) patients, the “TEAE highest severity grade 2” value (human, in vivo) was 17 (29.3%) patients and the “TEAE highest severity grade 3” value (human, in vivo) was 28 (48.3%) patients. For the same compound, the “TEAE highest severity grade 4” value (human, in vivo) was 2 (3.4%) patients, the “number of serious adverse effects (SAEs)” value (human, in vivo) was 39 SAEs and the “patients experiencing serious adverse effects (SAEs)” value (human, in vivo) was 20 patients. The “patients requiring a dose reduction” value (human, in vivo) was 20%, the “patients requiring a dose reduction after the 28-day DLT period” value (human, in vivo) was 7 out of 9 and the “patients requiring dose modifications due to adverse events” value (human, in vivo) was 30 (51.7%) patients. For the same compound, the “SAEs deemed possibly study drug related (DLTs)” value (in vivo) was “two”, the “TEAEs most often severe (grade >2)” value (in vivo) was “hyperphosphatemia, anemia, hyponatremia, and dyspnea” and the dose reduction required (in vivo) was “no dose reduction was required at all”. The “most common TEAEs with an incidence ≥25%” value (in vivo) was “hyperphosphatemia, diarrhea, nausea, fatigue, constipation, decreased appetite, nail changes, and dry mouth”, the safety profile (in vivo) was “tolerable and manageable safety profile” and the “TEAE highest severity grade 5” value (of 58 treated patients) was 7 (12.1%) patients. For the same compound, the “patients died from disease progression” value (of 58 treated patients) was 21 patients, the tumor volume reduction ([2]; cholangiocarcinoma FGFR2-ATAD2 fusion, after 6 weeks of treatment) was “about 7%” and the “patients with BOR of PR by investigator assessment” value ([2]; cholangiocarcinoma FGFR2-TACC2 fusion and colon cancer FGFR2-RP11-89K10.1 fusion, as of January 2019) was “two”. The best response ([2]; one patient, cholangiocarcinoma FGFR2-ATAD2 fusion) was “disease stabilization (SD)”, the half-life (clinical; human, po) was 11.5 h and the hyperphosphatemia dose relation (clinical) was “dose-dependent”.
